Laboratory results published in PubChem BioAssay (NCI).
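Grown in 96-well plates, cells were treated for 48 hours with each compound at five concentrations. Insufficient inhibition: endpoint recorded as highest concentration tested. The concentration for 50% growth inhibition is given as GI50. TGI marks complete inhibition of growth.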

Assays:
Test in all cases: growth of human tumour cells (NCI), 48 h
OVCAR-4 ovarian = test system: OVCAR-4 ovarian
SNB-75 CNS = test system: SNB-75 CNS
U251 CNS = test system: U251 CNS
HCC-2998 colon = test system: HCC-2998 colon
A549 NSCLC = test system: A549 NSCLC
SK-MEL-2 melanoma = test system: SK-MEL-2 melanoma
MDA-MB-435 = test system: MDA-MB-435
NCI-H460 lung = test system: NCI-H460 lung
NCI-H226 lung = test system: NCI-H226 lung
EKVX NSCLC = test system: EKVX NSCLC
NCI/ADR-RES ovarian = test system: NCI/ADR-RES ovarian
T-47D breast = test system: T-47D breast
SK-MEL-5 melanoma = test system: SK-MEL-5 melanoma
BT-549 breast = test system: BT-549 breast

SMILES | TGI (OVCAR-4 ovarian) [µM] | TGI (SNB-75 CNS) [µM] | TGI (U251 CNS) [µM] | TGI (HCC-2998 colon) [µM] | TGI (A549 NSCLC) [µM] | TGI (SK-MEL-2 melanoma) [µM] | TGI (MDA-MB-435) [µM] | TGI (NCI-H460 lung) [µM] | TGI (NCI-H226 lung) [µM] | TGI (EKVX NSCLC) [µM] | TGI (NCI/ADR-RES ovarian) [µM] | TGI (T-47D breast) [µM] | TGI (SK-MEL-5 melanoma) [µM] | TGI (BT-549 breast) [µM] | GI50 (OVCAR-4 ovarian) [µM] | GI50 (U251 CNS) [µM] | GI50 (A549 NSCLC) [µM] | GI50 (MDA-MB-435) [µM] | GI50 (NCI-H226 lung) [µM] | GI50 (BT-549 breast) [µM]
O=C(Cc1ccccc1F)NC1=C(Cl)C(=O)c2ccccc2C1=O | 5.65 | 8.06 | 4.67 | 15.2 | 15.7 | 2.98 | 10.4 | 21.7 | 6.7 | 18 | 6.25 | 5.8 | 4.37 | 7.26 |  |  |  |  |  | 
CN(C)c1ccc(/C=C/c2ccc(S(N)(=O)=O)cc2)cc1 | 10.1 | 62.6 | 31.7 | > 100 | 26.2 | > 100 | 23.7 | > 100 | 33 | 52.5 | 40 | 80.4 | 25.8 | 8.62 | 3.35 | 11.2 | 10.1 | 7.63 | 12.1 | 2.14
CCOC(=O)NN(C(=O)OCC)C(C(=O)C1=CCCCC1)N(NC(=O)OCC)C(=O)OCC | > 100 | > 100 | > 100 | > 100 | > 100 | > 100 | > 100 | > 100 | > 100 | > 100 | > 100 | > 100 | > 100 | > 100 |  |  |  |  |  | 
CCCCCCCCCCCCOP(=O)(O)OP(=O)(O)OCC1OC(n2ccc(N)nc2=O)CC1O (centres undefined) | > 100 | > 100 | > 100 | > 100 | > 100 | > 100 | > 100 | > 100 | > 100 | > 100 | > 100 | > 100 | > 100 | > 100 |  |  |  |  |  | 
N#CC1(C#N)NC(c2ccccc2)C(C#N)(C#N)NC1c1ccccc1 (centres undefined) | > 100 | > 100 | > 100 | > 100 | > 100 | > 100 | > 100 | > 100 | > 100 | > 100 | > 100 | > 100 | > 100 | > 100 |  |  |  |  |  | 
CC1(C)[C@@H]2C[C@H]1[C@@H](Cc1cccc(C[C@H]3c4cc(-c5ccccn5)ncc4[C@H]4C[C@@H]3C4(C)C)c1)c1cc(-c3ccccn3)ncc12 | > 100 | > 100 | > 100 | > 100 | > 100 | > 100 | > 100 | > 33.4 | > 91.2 | > 60 | 40.3 | > 49.3 | > 38 | > 100 |  |  |  |  |  | 
COc1cc(C)c(/C=C2/N=C(c3ccccc3)OC2=O)c([N+](=O)[O-])c1OC | > 100 | > 100 | > 100 | > 100 | > 100 | > 100 | > 100 | > 100 | > 100 | > 100 | > 100 | > 100 |  | > 100 |  |  |  |  |  | 
Oc1ccc([C@H]2c3c(O)cc(O)cc3C3c4c(cc(O)cc4[C@@H]2[C@H]2c4cc(O)cc5c4C(c4cc(O)cc(O)c4[C@@H]2c2ccc(O)cc2)[C@@H](c2ccc(O)cc2)O5)O[C@@H]3c2ccc(O)cc2)cc1 (some centres undefined) | 8.53 | > 100 | > 100 |  | > 100 | > 100 | > 100 | > 100 | > 100 | > 100 | > 100 | > 100 | > 100 | > 100 |  |  |  |  |  | 
Cc1cc(Cl)nc2nc(Cl)c(N)cc12 | 8.91 | 30 | 4.3 | 3.59 | 37.2 | 31.4 | 4.64 | 5.43 | 51.7 | 10.5 | 58.2 | 15.4 | 24.6 | 28.4 |  |  |  |  |  | 
CCOC(=O)C(NC(=O)c1ccccc1)(Nc1ccc(S(=O)(=O)Nc2ncccn2)cc1)C(F)(F)F (centres undefined) | > 100 | > 100 | > 100 | > 100 | > 100 | > 100 | > 100 | > 100 | > 100 | > 100 | > 100 | > 100 | > 100 | > 100 |  |  |  |  |  | 
c1cc(-c2ccc(-c3ccc(-c4ccc(-c5ccncc5)o4)cc3)o2)ccn1 | 65.4 | 36.6 | 35.3 | 33.1 | 35.7 |  | 33.4 | 35.3 | 56 | 45 | > 100 | 40.9 | 26 | 30.7 |  |  |  |  |  | 
COC(=O)N1CC(=O)C(C(=O)NC23CC4CC(CC(C4)C2)C3)C1 (centres undefined) | > 100 |  | > 100 | > 100 | > 100 | > 100 | > 100 | > 100 | > 100 |  | > 100 | > 100 | > 100 | > 100 |  |  |  |  |  | 
COc1cc2c(c(OC)c1OC)C(=O)[C@@H]1[C@H]2N1C(=O)NCCCl | > 100 | > 100 | > 100 | > 100 | > 100 | > 100 | > 100 | > 100 | > 100 | > 100 | > 100 | > 100 | > 100 | > 100 |  |  |  |  |  | 
Cc1ccc(C(=O)Nc2ccc(CP(=O)(O)O)cc2)cc1NC(=O)c1cccc(N)c1 | > 100 | > 100 | > 100 | > 100 | > 100 | > 100 | > 100 |  | > 100 | > 100 | > 100 | > 100 | > 100 | > 100 |  |  |  |  |  | 
NC(N)=NS(=O)(=O)c1ccc(N/N=C2/CCOC2=O)cc1 | > 100 | 58.7 | > 100 | > 100 | > 100 | > 100 | > 100 | > 100 | > 100 | > 100 | > 100 | > 100 | > 100 | > 100 |  |  |  |  |  | 
Cc1nc(SCC(=O)Nc2ccc(Cl)cc2)c2sc(=S)n(-c3ccccc3)c2n1 | > 10 | > 10 | > 10 | > 10 | > 10 | > 10 | > 10 | > 10 | > 10 | > 10 | > 10 | > 10 | > 10 | > 10 |  |  |  |  |  | 
